≈ marks a conversion by molar mass, not a printed value. Calls of active or inactive are those of the source. The calls are words filed in the database; no cut-off is given here.
How the values were obtained:
[1] = tested on: Mycobacterium tuberculosis; test: Antituberculosis activity against Mycobacterium tuberculosis H37Rv ATCC 27294 after 21 days by BACTEC based radiometric respiratory technique; type: functional; settings: H37Rv ATCC 27294, 504 h
Staphylococcus aureus [2] = test: Antibacterial activity against Staphylococcus aureus ATCC 25833 after 24 hr by two-fold serial dilution method; type: functional; settings: ATCC 25833, 24 h
Salmonella typhi = test: Antibacterial activity against Salmonella enterica subsp. enterica serovar Typhi ATCC 24930 after 24 hr by two-fold serial dilution method; type: functional; settings: ATCC 24930, 24 h
Bacillus subtilis [3] = test: Antibacterial activity against Bacillus subtilis ATCC 461 after 24 hr by two-fold serial dilution method; type: functional; settings: ATCC 461, 24 h
[4] = tested on: Mycobacterium tuberculosis; test: Ratio of isoniazid MIC to compound MIC for Mycobacterium tuberculosis H37Rv ATCC 27294; type: functional
Rhizopus = test: Antifungal activity against Rhizopus sp. ATCC 2920 after 72 to 96 hr by two-fold serial dilution method; type: functional
Escherichia coli = test: Antibacterial activity against Escherichia coli ATCC 25840 after 24 hr by two-fold serial dilution method; type: functional; settings: ATCC 25840, 24 h
Aspergillus niger [5] = test: Antifungal activity against Aspergillus niger ATCC 591 after 72 to 96 hr by two-fold serial dilution method; type: functional
Candida albicans [6] = test: Antifungal activity against Candida albicans ATCC 3130 after 72 to 96 hr by two-fold serial dilution method; type: functional
Aspergillus flavus = test: Antifungal activity against Aspergillus flavus ATCC 470 after 72 to 96 hr by two-fold serial dilution method; type: functional
[7] = tested on: Mycobacterium tuberculosis; test: Ratio of rifampicin MIC to compound MIC for Mycobacterium tuberculosis H37Rv ATCC 27294; type: functional
Cryptococcus neoformans = test: Antifungal activity against Cryptococcus neoformans ATCC 3315 after 72 to 96 hr by two-fold serial dilution method; type: functional
Klebsiella pneumoniae [8] = test: Antibacterial activity against Klebsiella pneumoniae ATCC 15499 after 24 hr by two-fold serial dilution method; type: functional; settings: ATCC 15499, 24 h
Bacillus subtilis [9] = test: Antibacterial activity against Bacillus subtilis ATCC 461 at 200 ug/ml after 24 hr by two-fold serial dilution method; type: functional, organism-based
Candida albicans [10] = test: Antifungal activity against Candida albicans ATCC 3130 at 200 ug/ml after 72 to 96 hr by two-fold serial dilution method; type: functional, organism-based
Staphylococcus aureus [11] = test: Antibacterial activity against Staphylococcus aureus ATCC 25833 at 200 ug/ml after 24 hr by two-fold serial dilution method; type: functional, organism-based
Klebsiella pneumoniae [12] = test: Antibacterial activity against Klebsiella pneumoniae ATCC 15499 at 200 ug/ml after 24 hr by two-fold serial dilution method; type: functional, organism-based
Aspergillus niger [13] = test: Antifungal activity against Aspergillus niger ATCC 591 at 200 ug/ml after 72 to 96 hr by two-fold serial dilution method; type: functional, organism-based

Row | Compound | MIC [1] [mg/L] | MIC (Staphylococcus aureus [2]) [mg/L] | MIC (Salmonella typhi) [mg/L] | MIC (Bacillus subtilis [3]) [mg/L] | Ratio [4] | MIC (Rhizopus) [mg/L] | MIC (Escherichia coli) [mg/L] | MIC (Aspergillus niger [5]) [mg/L] | MIC (Candida albicans [6]) [mg/L] | MIC (Aspergillus flavus) [mg/L] | Ratio [7] | MIC (Cryptococcus neoformans) [mg/L] | MIC (Klebsiella pneumoniae [8]) [mg/L] | Activity (Bacillus subtilis [9]) | Activity (Candida albicans [10]) | Activity (Staphylococcus aureus [11]) | Activity (Klebsiella pneumoniae [12]) | Activity (Aspergillus niger [13])
1 | CO[C@H]1/C=C/O[C@@]2(C)Oc3c(C)c(O)c4c(O)c(c(/C=N/N5CCN(C)CC5)c(O)c4c3C2=O)NC(=O)/C(C)=C\C=C\[C@H](C)[C@H](O)[C@@H](C)[C@@H](O)[C@@H](C)[C@H](OC(C)=O)[C@@H]1C [RIFAMPIN] | 32 (≈ 38.9 µM) | – | – | – | – | – | – | – | – | – | – | – | – | – | – | – | – | –
2 | CCOC(=O)N1CCN(CC(=O)N2C(c3ccc(F)cc3)CC(=O)C(CC)C2c2ccc(F)cc2)CC1 (stereo not drawn) | 64 (≈ 125 µM) | 100 (≈ 195 µM) | 50 (≈ 97.4 µM) | 100 (≈ 195 µM) | 0.39 | 12.5 (≈ 24.3 µM) | 12.5 (≈ 24.3 µM) | 12.5 (≈ 24.3 µM) | 50 (≈ 97.4 µM) | 100 (≈ 195 µM) | 50 | 100 (≈ 195 µM) | 12.5 (≈ 24.3 µM) | – | – | – | – | –
3 | CCOC(=O)N1CCN(CC(=O)N2C(c3ccccc3)C(C)C(=O)C(C)C2c2ccccc2)CC1 (stereo not drawn) | – | 200 (≈ 419 µM) | – | – | – | 100 (≈ 209 µM) | 25 (≈ 52.3 µM) | 100 (≈ 209 µM) | 100 (≈ 209 µM) | 100 (≈ 209 µM) | – | 25 (≈ 52.3 µM) | 50 (≈ 105 µM) | inactive | – | – | – | –
4 | CC1(C)S[C@@H]2[C@H](NC(=O)Cc3ccccc3)C(=O)N2[C@H]1C(=O)O [PENICILLIN G] | – | 50 (≈ 150 µM) | 50 (≈ 150 µM) | 12.5 (≈ 37.4 µM) | – | – | 12.5 (≈ 37.4 µM) | – | – | – | – | – | 25 (≈ 74.8 µM) | – | – | – | – | –
5 | CCOC(=O)N1CCN(CC(=O)N2C(c3ccccc3)CC(=O)C(C)C2c2ccccc2)CC1 (stereo not drawn) | > 256 | 100 (≈ 216 µM) | 100 (≈ 216 µM) | 50 (≈ 108 µM) | – | 200 (≈ 431 µM) | 50 (≈ 108 µM) | 100 (≈ 216 µM) | – | 200 (≈ 431 µM) | – | 50 (≈ 108 µM) | 200 (≈ 431 µM) | – | inactive | – | – | –
6 | CCOC(=O)N1CCN(CC(=O)N2C(c3ccc(C)cc3)CC(=O)C(C)C2c2ccc(C)cc2)CC1 (stereo not drawn) | > 256 | – | 200 (≈ 407 µM) | 100 (≈ 203 µM) | – | 200 (≈ 407 µM) | 50 (≈ 102 µM) | 50 (≈ 102 µM) | 200 (≈ 407 µM) | 200 (≈ 407 µM) | – | 50 (≈ 102 µM) | 100 (≈ 203 µM) | – | – | inactive | – | –
7 | CCOC(=O)N1CCN(CC(=O)N2C(c3ccccc3)CC(=O)C(CC)C2c2ccccc2)CC1 (stereo not drawn) | 16 (≈ 33.5 µM) | 200 (≈ 419 µM) | 100 (≈ 209 µM) | 50 (≈ 105 µM) | 1.56 | 100 (≈ 209 µM) | 25 (≈ 52.3 µM) | – | 12.5 (≈ 26.2 µM) | 12.5 (≈ 26.2 µM) | 200 | 25 (≈ 52.3 µM) | – | – | – | – | inactive | inactive

From ChEMBL document CHEMBL3045244, “Design and synthesis of novel piperazine unit condensed 2,6-diarylpiperidin-4-one derivatives as antituberculosis and antimicrobial agents” (2012)
